Assay results taken from patent EP4745135A1 (Gluetacs Therapeutics (Shanghai) Co., Ltd., priority 2023, dated 2025).

Tests used:
[1] = target: T1, human Cereblon WT GST-tagged protein (Homo sapiens, UniProt Q96SW2); assay: CRBN-binding affinity, HTRF (CEREBLON BINDING kit); conditions: for inhibition at 0.5 µM: read-out: Inhibition Rate at 0.5 µM (%); for inhibition at 2 µM: read-out: Inhibition Rate at 2 µM (%)
T1 construct: purchased CISBIO 64BDCRBNPEH

[2] = test system: GSPT1; assay: Western blot, degradation of substrate protein in hPBMCs; format: cell-based, Human
[3] = target: T2, WEE1 (Homo sapiens, UniProt P30291+Q96SW2); assay: as above; format: cell-based
T2 construct: effects of the compounds of the present disclosure on the expression of target proteins in cells; endogenous in cells; host or cells: human PBMCs (Milecell Biotechnologies)

[4] = target: T3, CK1α (Homo sapiens, UniProt P48729+Q96SW2); assay: as above; format: cell-based
T3 construct: effects of the compounds of the present disclosure on the expression of target proteins in cells; endogenous in cells; host or cells: human PBMCs (Milecell Biotechnologies)

[5] = target: T4, IKZF3 (Homo sapiens, UniProt Q96SW2+Q9UKT9); assay: as above; format: cell-based
T4 construct: effects of the compounds of the present disclosure on the expression of target proteins in cells; endogenous in cells; host or cells: human PBMCs (Milecell Biotechnologies)

[6] = target: T5, IKZF2 (Homo sapiens, UniProt Q96SW2+Q9UKS7); assay: as above; format: cell-based
T5 construct: effects of the compounds of the present disclosure on the expression of target proteins in cells; endogenous in cells; host or cells: human PBMCs (Milecell Biotechnologies)

[7] = target: T6, IKZF1 (Homo sapiens, UniProt Q13422+Q96SW2); assay: as above; format: cell-based
T6 construct: effects of the compounds of the present disclosure on the expression of target proteins in cells; endogenous in cells; host or cells: human PBMCs (Milecell Biotechnologies)

[8] = Western blot, 24 hours of compound treatment, compounds tested at 50 nM and 500 nM (concentration for the table not stated)
[9] = 24 hours treatment, compounds at 50 nM and 500 nM (concentration behind the class not stated)

T5 sequence (Q9UKS7 whole entry): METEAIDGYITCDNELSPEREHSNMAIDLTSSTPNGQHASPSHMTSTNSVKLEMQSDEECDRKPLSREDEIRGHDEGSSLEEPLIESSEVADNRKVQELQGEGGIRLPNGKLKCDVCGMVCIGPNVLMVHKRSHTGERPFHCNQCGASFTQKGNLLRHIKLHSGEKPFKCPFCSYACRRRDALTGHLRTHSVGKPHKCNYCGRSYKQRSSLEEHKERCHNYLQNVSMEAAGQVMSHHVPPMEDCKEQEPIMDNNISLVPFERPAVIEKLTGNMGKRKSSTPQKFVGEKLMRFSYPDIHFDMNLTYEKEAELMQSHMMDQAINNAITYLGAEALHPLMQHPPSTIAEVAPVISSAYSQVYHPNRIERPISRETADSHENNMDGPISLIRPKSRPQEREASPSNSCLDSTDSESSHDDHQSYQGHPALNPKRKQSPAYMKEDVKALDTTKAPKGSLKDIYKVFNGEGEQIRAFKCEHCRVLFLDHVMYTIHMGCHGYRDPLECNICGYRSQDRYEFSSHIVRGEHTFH
T5 sequence (Q96SW2 whole entry): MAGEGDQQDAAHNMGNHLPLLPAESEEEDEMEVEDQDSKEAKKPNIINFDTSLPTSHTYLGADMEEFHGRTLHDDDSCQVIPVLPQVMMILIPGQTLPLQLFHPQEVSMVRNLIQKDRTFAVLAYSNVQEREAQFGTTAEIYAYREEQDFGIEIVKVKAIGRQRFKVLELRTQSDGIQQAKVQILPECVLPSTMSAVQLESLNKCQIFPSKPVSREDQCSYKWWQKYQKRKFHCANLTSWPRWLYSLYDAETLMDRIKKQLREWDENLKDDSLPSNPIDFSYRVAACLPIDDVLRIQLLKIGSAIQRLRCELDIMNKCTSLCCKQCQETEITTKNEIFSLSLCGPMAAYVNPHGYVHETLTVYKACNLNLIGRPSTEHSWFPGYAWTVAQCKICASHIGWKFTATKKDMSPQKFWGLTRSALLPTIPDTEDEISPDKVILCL
T5 sequence (Q16531 whole entry partner): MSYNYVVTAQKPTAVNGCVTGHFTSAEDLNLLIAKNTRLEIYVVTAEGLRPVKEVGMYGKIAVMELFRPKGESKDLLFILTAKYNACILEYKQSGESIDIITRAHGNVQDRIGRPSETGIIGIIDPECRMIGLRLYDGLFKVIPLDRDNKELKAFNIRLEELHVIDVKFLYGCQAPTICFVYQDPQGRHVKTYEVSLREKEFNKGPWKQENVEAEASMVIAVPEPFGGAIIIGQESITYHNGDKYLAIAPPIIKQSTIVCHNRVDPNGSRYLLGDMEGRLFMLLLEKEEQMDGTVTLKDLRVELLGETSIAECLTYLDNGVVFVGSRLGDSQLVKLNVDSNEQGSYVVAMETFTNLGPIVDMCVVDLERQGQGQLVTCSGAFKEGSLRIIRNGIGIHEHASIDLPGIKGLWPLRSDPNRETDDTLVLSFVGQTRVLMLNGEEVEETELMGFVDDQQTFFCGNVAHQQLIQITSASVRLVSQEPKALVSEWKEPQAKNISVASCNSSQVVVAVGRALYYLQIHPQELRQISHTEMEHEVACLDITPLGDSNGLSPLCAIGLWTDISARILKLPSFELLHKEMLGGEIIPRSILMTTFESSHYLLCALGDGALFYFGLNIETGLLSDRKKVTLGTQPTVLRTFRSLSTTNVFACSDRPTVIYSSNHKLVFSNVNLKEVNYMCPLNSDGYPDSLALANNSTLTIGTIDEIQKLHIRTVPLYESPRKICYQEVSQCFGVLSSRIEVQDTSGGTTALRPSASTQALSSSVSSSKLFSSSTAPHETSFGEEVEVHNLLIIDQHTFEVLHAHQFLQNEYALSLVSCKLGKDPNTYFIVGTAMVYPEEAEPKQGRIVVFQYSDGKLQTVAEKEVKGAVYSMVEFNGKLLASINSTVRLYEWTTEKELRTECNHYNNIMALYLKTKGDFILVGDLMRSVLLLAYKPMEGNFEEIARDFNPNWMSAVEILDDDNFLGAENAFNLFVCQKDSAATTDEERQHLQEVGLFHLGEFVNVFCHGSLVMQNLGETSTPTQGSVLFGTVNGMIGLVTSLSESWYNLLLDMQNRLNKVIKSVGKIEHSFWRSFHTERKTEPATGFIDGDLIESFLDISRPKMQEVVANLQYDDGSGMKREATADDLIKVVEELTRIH
T2 sequence (P30291 whole entry): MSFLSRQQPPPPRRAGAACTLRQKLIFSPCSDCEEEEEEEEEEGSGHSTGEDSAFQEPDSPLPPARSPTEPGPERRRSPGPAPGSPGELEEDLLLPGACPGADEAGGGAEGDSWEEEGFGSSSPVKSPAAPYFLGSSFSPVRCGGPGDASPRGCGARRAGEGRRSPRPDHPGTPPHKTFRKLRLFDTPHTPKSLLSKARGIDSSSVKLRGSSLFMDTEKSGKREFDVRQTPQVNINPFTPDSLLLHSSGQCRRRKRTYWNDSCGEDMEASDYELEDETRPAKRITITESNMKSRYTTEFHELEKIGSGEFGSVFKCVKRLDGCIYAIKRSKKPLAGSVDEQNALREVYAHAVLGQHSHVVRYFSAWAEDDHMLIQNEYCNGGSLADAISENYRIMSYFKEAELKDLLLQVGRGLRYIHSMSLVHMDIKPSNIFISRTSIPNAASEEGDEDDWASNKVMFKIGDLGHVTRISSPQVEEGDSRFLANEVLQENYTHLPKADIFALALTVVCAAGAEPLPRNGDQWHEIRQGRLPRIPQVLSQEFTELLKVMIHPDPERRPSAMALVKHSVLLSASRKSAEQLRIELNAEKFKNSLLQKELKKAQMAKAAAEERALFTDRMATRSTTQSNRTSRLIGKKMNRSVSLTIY
T2 sequence (Q96SW2 whole entry): as the sequence (Q96SW2 whole entry) above
T2 sequence (Q16531 whole entry partner): as the sequence (Q16531 whole entry partner) above
T4 sequence (Q9UKT9 whole entry): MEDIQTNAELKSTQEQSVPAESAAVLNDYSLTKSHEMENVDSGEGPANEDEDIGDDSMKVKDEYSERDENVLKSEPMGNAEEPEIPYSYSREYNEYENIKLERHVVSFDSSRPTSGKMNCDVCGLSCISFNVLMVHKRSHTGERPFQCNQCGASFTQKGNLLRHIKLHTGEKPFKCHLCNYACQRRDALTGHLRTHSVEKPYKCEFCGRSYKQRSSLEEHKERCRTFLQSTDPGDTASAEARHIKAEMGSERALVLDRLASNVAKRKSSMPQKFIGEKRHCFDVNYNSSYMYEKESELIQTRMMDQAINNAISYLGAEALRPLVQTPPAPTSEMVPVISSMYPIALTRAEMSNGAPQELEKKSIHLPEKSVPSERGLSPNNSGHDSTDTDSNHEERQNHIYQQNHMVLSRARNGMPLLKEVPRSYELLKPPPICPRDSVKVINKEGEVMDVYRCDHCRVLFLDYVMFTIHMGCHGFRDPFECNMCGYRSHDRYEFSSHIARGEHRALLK
T4 sequence (Q96SW2 whole entry): as the sequence (Q96SW2 whole entry) above
T4 sequence (Q16531 whole entry partner): as the sequence (Q16531 whole entry partner) above
T6 sequence (Q13422 whole entry): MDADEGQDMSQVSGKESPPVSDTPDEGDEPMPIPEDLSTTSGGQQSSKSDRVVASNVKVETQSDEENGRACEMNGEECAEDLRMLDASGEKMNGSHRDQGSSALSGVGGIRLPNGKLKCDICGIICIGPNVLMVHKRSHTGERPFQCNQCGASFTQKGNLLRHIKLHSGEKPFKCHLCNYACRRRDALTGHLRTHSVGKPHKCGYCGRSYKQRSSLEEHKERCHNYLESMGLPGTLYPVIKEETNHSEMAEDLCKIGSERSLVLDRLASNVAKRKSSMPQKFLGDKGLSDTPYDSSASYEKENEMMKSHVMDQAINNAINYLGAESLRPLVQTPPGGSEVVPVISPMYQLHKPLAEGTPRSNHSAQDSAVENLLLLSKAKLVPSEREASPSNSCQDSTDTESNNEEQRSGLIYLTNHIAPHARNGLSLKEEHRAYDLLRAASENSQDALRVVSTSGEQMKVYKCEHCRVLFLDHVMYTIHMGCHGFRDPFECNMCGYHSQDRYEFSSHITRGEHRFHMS
T6 sequence (Q96SW2 whole entry): as the sequence (Q96SW2 whole entry) above
T6 sequence (Q16531 whole entry partner): as the sequence (Q16531 whole entry partner) above
T1 sequence (Q96SW2 whole entry): as the sequence (Q96SW2 whole entry) above
T3 sequence (P48729 whole entry): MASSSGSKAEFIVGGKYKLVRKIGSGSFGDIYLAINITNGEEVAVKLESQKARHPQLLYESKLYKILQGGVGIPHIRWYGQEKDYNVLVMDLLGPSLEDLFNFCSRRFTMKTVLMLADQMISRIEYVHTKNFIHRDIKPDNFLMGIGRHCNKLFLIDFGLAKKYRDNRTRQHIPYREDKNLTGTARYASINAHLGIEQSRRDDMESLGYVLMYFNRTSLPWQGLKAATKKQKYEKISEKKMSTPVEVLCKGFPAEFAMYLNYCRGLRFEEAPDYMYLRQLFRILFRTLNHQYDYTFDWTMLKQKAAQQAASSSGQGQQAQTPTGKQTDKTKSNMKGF
T3 sequence (Q96SW2 whole entry): as the sequence (Q96SW2 whole entry) above
T3 sequence (Q16531 whole entry partner): as the sequence (Q16531 whole entry partner) above

SMILES	inhibition at 0.5 µM [1]	inhibition at 2 µM [1]	GSPT1 substrate protein remaining % [2, 8]	Wee1 substrate protein remaining % [3, 8]	CK1α substrate protein remaining % [4, 8]	IKZF3 substrate protein remaining % [5, 8]	IKZF2 substrate protein remaining % [6, 8]	IKZF 1 substrate protein remaining % [7, 8]	GSPT1 substrate protein remaining % [2, 9]	Wee1 substrate protein remaining % [3, 9]	CK1α substrate protein remaining % [4, 9]	IKZF3 substrate protein remaining % [5, 9]	IKZF2 substrate protein remaining % [6, 9]	IKZF 1 substrate protein remaining % [7, 9]
Cn1cc(C2CCN(Cc3cccc4c3CN(C3CCC(=O)NC3=O)C4=S)CC2)c2ccc(F)cc21 (centres unmarked) [GT-08844, 3-(4-((4-(6-fluoro-1-methyl-1H-indol-3-yl)piperidin-1-yl)methyl)-1-thioxoisoindolin-2-yl)piperidine-2,6-dione]	40 to 53%	60 to 80%	B (80%< substrate protein remaining %≤ 100%)	A (0% ≤ substrate protein remaining % ≤ 80%)	B (80%< substrate protein remaining %≤ 100%)	B (80%< substrate protein remaining %≤ 100%)	B (80%< substrate protein remaining %≤ 100%)	B (80%< substrate protein remaining %≤ 100%)	–	–	–	–	–	–
CC1(C)CCC(CN2C3CCC2CN(Cc2ccc4c(c2)CN(C2CCC(=O)NC2=O)C4=S)C3)=C(c2ccc(Cl)cc2)C1 (centres unmarked) [GT-08162, 3-(5-((8-((4'-chloro-5,5-dimethyl-3,4,5,6-tetrahydro-[1,1'-biphenyl]-2-yl)methyl)-3,8-diazabicyclo[3.2.1]octan-3-yl)methyl)-1-thioxoisoindolin-2-yl)piperidine-2,6-dione]	30 to 40%	60 to 80%	–	–	–	–	–	–	B (80%< substrate protein remaining %≤ 100%)	A (0% ≤ substrate protein remaining % ≤ 80%)	B (80%< substrate protein remaining %≤ 100%)	B (80%< substrate protein remaining %≤ 100%)	B (80%< substrate protein remaining %≤ 100%)	B (80%< substrate protein remaining %≤ 100%)
O=C1CCC(N2Cc3c(CN4CCN(c5ccc(Cl)nn5)CC4)cccc3C2=S)C(=O)N1 (centres unmarked) [GT-08811, 3-(4-((4-(6-chloropyridazin-3-yl)piperazin-1-yl)methyl)-1-thioxoisoindolin-2-yl)piperidine-2,6-dione]	60 to 80%	80 to 100%	A (0% ≤ substrate protein remaining % ≤ 80%)	A (0% ≤ substrate protein remaining % ≤ 80%)	A (0% ≤ substrate protein remaining % ≤ 80%)	A (0% ≤ substrate protein remaining % ≤ 80%)	A (0% ≤ substrate protein remaining % ≤ 80%)	A (0% ≤ substrate protein remaining % ≤ 80%)	–	–	–	–	–	–
O=C1CCC(N2Cc3c(CN4CCC(N5CCCc6cc(F)ccc65)CC4)cccc3C2=S)C(=O)N1 (centres unmarked) [GT-08851, 3-(4-((4-(6-fluoro-3,4-dihydroquinolin-1(2H)-yl)piperidin-1-yl)methyl)-1-thioxoisoindolin-2-yl)piperidine-2,6-dione]	40 to 53%	60 to 80%	A (0% ≤ substrate protein remaining % ≤ 80%)	A (0% ≤ substrate protein remaining % ≤ 80%)	B (80%< substrate protein remaining %≤ 100%)	B (80%< substrate protein remaining %≤ 100%)	B (80%< substrate protein remaining %≤ 100%)	B (80%< substrate protein remaining %≤ 100%)	–	–	–	–	–	–
O=C1CCC(N2Cc3cc(CN4CCC(c5ncc6ccsc6n5)CC4)ccc3C2=S)C(=O)N1 (centres unmarked) [GT-09313, 3-(5-((4-(thieno[2,3-d]pyrimidin-2-yl)piperidin-1-yl)methyl)-1-thioxoisoindolin-2-yl)piperidine-2,6-dione]	60 to 80%	80 to 100%	–	–	–	–	–	–	A (0% ≤ substrate protein remaining % ≤ 80%)	B (80%< substrate protein remaining %≤ 100%)	B (80%< substrate protein remaining %≤ 100%)	B (80%< substrate protein remaining %≤ 100%)	B (80%< substrate protein remaining %≤ 100%)	A (0% ≤ substrate protein remaining % ≤ 80%)
O=C1CCC(N2Cc3c(CN4CCN(c5ccc(Br)cc5)CC4)cccc3C2=S)C(=O)N1 (centres unmarked) [GT-08496, 3-(4-((4-(4-bromophenyl)piperazin-1-yl)methyl)-1-thioxoisoindolin-2-yl)piperidine-2,6-dione]	40 to 53%	80 to 100%	A (0% ≤ substrate protein remaining % ≤ 80%)	A (0% ≤ substrate protein remaining % ≤ 80%)	B (80%< substrate protein remaining %≤ 100%)	B (80%< substrate protein remaining %≤ 100%)	A (0% ≤ substrate protein remaining % ≤ 80%)	A (0% ≤ substrate protein remaining % ≤ 80%)	–	–	–	–	–	–
O=C1CCC(N2Cc3c(CN4CCC(c5ncnc6scc(-c7ccccc7)c56)CC4)cccc3C2=S)C(=O)N1 (centres unmarked) [GT-08930, 3-(4-((4-(5-phenylthieno[2,3-d]pyrimidin-4-yl)piperidin-1-yl)methyl)-1-thioxoisoindolin-2-yl)piperidine-2,6-dione]	53 to 60%	80 to 100%	–	–	–	–	–	–	B (80%< substrate protein remaining %≤ 100%)	A (0% ≤ substrate protein remaining % ≤ 80%)	B (80%< substrate protein remaining %≤ 100%)	B (80%< substrate protein remaining %≤ 100%)	B (80%< substrate protein remaining %≤ 100%)	B (80%< substrate protein remaining %≤ 100%)
O=C1CCC(N2Cc3c(CN4CCC(c5ncnc6sc(-c7ccccc7)cc56)CC4)cccc3C2=S)C(=O)N1 (centres unmarked) [GT-08929, 3-(4-((4-(6-phenylthieno[2,3-d]pyrimidin-4-yl)piperidin-1-yl)methyl)-1-thioxoisoindolin-2-yl)piperidine-2,6-dione]	30 to 40%	60 to 80%	–	–	–	–	–	–	B (80%< substrate protein remaining %≤ 100%)	A (0% ≤ substrate protein remaining % ≤ 80%)	B (80%< substrate protein remaining %≤ 100%)	B (80%< substrate protein remaining %≤ 100%)	B (80%< substrate protein remaining %≤ 100%)	B (80%< substrate protein remaining %≤ 100%)
Cc1nc(C2=CCN(Cc3cccc4c3CN(C3CCC(=O)NC3=O)C4=S)CC2)c2c3c(sc2n1)CCC3 (centres unmarked) [GT-08964, 3-(4-((4-(2-methyl-6,7-dihydro-5H-cyclopenta[4,5]thieno[2,3-d]pyrimidin-4-yl)-3,6-dihydropyridin-1(2H)-yl)methyl)-1-thioxoisoindolin-2-yl)piperidine-2,6-dione]	53 to 60%	80 to 100%	–	–	–	–	–	–	B (80%< substrate protein remaining %≤ 100%)	A (0% ≤ substrate protein remaining % ≤ 80%)	B (80%< substrate protein remaining %≤ 100%)	B (80%< substrate protein remaining %≤ 100%)	B (80%< substrate protein remaining %≤ 100%)	B (80%< substrate protein remaining %≤ 100%)
O=C1CCC(N2Cc3c(CN4CCN(c5ccc(Cl)nc5)CC4)cccc3C2=S)C(=O)N1 (centres unmarked) [GT-08723, 3-(4-((4-(6-chloropyridin-3-yl)piperazin-1-yl)methyl)-1-thioxoisoindolin-2-yl)piperidine-2,6-dione]	60 to 80%	80 to 100%	A (0% ≤ substrate protein remaining % ≤ 80%)	A (0% ≤ substrate protein remaining % ≤ 80%)	B (80%< substrate protein remaining %≤ 100%)	A (0% ≤ substrate protein remaining % ≤ 80%)	A (0% ≤ substrate protein remaining % ≤ 80%)	B (80%< substrate protein remaining %≤ 100%)	–	–	–	–	–	–
